Results from article PMC12810351, “Structure-effect relationship of phenolic compounds on α-amylase inhibition studied by isothermal titration calorimetry” (Current Research in Food Science, 2025).
Like-named read-outs stand apart in the source and are kept apart here.

Columns and labels:
α-amylase [1] = target: α-amylase; parameters: method as in Kaeswurm et al. (2019); conditions: substrate GalG2CNP, CNP UV/Vis, ref Kaeswurm et al. (2019), cited from earlier work
[2] = target: T1, porcine pancreatic α-amylase (Sus scrofa, UniProt P00690); assay: starch hydrolysis by α-amylase monitored by isothermal titration calorimetry (ITC); type: biochemical; conditions: for inhibition mechanism suggested by Kic/Kiu ratios: polyphenol standards
T1 sequence (P00690 16-511): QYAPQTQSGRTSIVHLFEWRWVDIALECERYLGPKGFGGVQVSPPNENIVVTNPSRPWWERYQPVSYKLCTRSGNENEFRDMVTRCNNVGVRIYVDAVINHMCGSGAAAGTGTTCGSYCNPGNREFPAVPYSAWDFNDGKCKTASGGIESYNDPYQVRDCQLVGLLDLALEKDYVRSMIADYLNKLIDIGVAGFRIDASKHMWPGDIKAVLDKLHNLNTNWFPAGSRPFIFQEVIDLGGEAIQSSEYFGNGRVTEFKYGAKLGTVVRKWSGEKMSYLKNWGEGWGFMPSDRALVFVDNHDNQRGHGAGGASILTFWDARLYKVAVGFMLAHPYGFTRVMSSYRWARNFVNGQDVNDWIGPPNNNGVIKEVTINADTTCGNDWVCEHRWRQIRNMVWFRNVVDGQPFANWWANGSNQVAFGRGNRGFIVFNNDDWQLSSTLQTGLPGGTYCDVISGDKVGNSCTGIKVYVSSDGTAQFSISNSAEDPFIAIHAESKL
Description: The amylase stock solution was diluted each day and stored during the day at 4 °C.
The experiments were conducted using an Affinity ITC LV instrument with a cell volume of 182 μL (TA Instruments, Eschborn, Germany). […] These controls were conducted to determine the optimal injection volume to achieve maximal velocity (vmax) (S11). […] Enzyme kinetic constants were determined at 310 K.
The heat released during starch conversion was continuously monitored, with calculations performed using Microsoft Excel® software. The enzymatic rate (v) is directly proportional to the measured thermal power (eq (1)).(1) v=dP/dt=1/Vcell·ΔRHapp·dQ/dt
The reaction enthalpy ( ΔRHapp ) is determined by integrating the heat peak over its entire duration, divided by the number of substrate molecules converted:(2) ΔRHapp=∫t=0∞dQ/dtdt/nS
(dQ/dt)max [%], ΔRHapp [%] und vmax [%] are calculated in relation to daily control.
The substrate concentration at time t ([S]t) is calculated according to eq (3).(3) [S]t=∫t∞dQ/dtdt/∫0∞dQ/dtdt·[S]t=0
Therefore, the thermogram contains all the required data for calculating inhibition constants. The maximal conversion rate vmax and the Michaelis-Menten constant Km are determined from control experiments conducted in the absence of an inhibitor. In the presence of an inhibitor [I] the apparent values of vmaxapp and Kmapp are obtained. Competitive inhibition (Kic, eq (5)) is due to the formation of an enzyme-inhibitor complex (EI), whereas uncompetitive inhibition (Kiu, eq (5)) occurs when an inhibitor binds to a […]:(5) Kic=vmaxapp/Kmapp·[I]/(vmax/Km)−(vmaxapp/Kmapp)Kiu=vmaxapp·[I]/vmax−vmaxapp
The IC50 value, a key pharmacological metric, is used to compare the potency of inhibitors. […] The conversion rate (v0) was calculated from the thermogram according to eq (1), and subsequently plotted against the […]

α-amylase [3] = target: α-amylase; parameters: key to Kic [μM] / Kiu [μM] / IC50 [μM]: “–” no inhibition; conditions: substrate starch, PAHBAH UV/Vis, cited from earlier work
α-amylase [4] = conditions: substrate starch, DNS UV/Vis, cited from earlier work; for Ki: read-out: Kic
α-amylase [5] = target: α-amylase; parameters: method as in Narita and Inouye (2011); conditions: substrate G2-pNP, pNP UV/Vis, ref Narita and Inouye (2011), cited from earlier work
α-amylase [6] = target: α-amylase; parameters: method as in Zheng et al. (2020); conditions: substrate starch, D-glucose assay UV/Vis, ref Zheng et al. (2020), cited from earlier work
[7] = 100 μM polyphenol, 26 nM α-amylase, starch, 310 K, relative to control without inhibitor, read-out: (dQ/dt)max [%]
[8] = 100 μM polyphenol, relative to control, read-out: vmax [%]
[9] = calculated based on the mass concentration
[10] = calculated based on the mass concentration, read-out: IC50 [g/L] (converted)
[11] = calculated based on the mass concentration, read-out: Kic [g/L] (converted)
[12] = calculated based on the mass concentration, read-out: Kiu [g/L] (converted)
[13] = competitive inhibition constant, substrate starch, ITC, 100 μM polyphenol (EGCG 25 μM), read-out: Kic
[14] = substrate starch, ITC, calculated by eq (6), substrate concentration of 1 M (IC50 equivalent to Kiu), read-out: IC50*
[15] = uncompetitive inhibition constant, substrate starch, ITC, 100 μM polyphenol (EGCG 25 μM), read-out: Kiu
[16] = ref Souza Schmidt Gonçalves et al. (2010)

Structure (SMILES) | remaining activity at 100 µM [2, 7] | remaining activity at 100 µM [2, 8] | α (Kic/Kiu) [2, 9] | IC50 [2, 10] | Ki [2, 11] | Ki [2, 12] | Ki [2, 13] | inhibition type ([2]; substrate starch, ITC) | IC50 [2, 14] | Ki [2, 15] | inhibition mechanism suggested by Kic/Kiu ratios [2] | other results
O=C(CCc1ccc(O)cc1)c1c(O)cc(O)cc1O[C@@H]1O[C@H](CO)[C@@H](O)[C@H](O)[C@H]1O [PHL, phlorizin] | 83 ± 4% | 89 ± 7% | 0.76 ± 0.08 | 504 µM | 412 µM | 573 µM | 418 ± 127 µM | mixed | 572 ± 145 µM | 573 ± 145 µM |  | IC50 (α-amylase [1]): 391 µM; Ki (α-amylase [1]; read-out: Kic): 151 µM; Ki (α-amylase [1]; read-out: Kiu): 391 µM; IC50 [μM] (α-amylase [3]; ref Li et al. (2019)): –; Kic [μM] (α-amylase [3]; ref Li et al. (2019)): –; Kiu [μM] (α-amylase [3]; ref Li et al. (2019)): –
OC[C@H]1O[C@@H](Oc2cc3c(O)cc(O)cc3[o+]c2-c2ccc(O)c(O)c2)[C@H](O)[C@@H](O)[C@@H]1O [CYD-3-glc, cyanidin-3-O-glucoside] | 74 ± 10% | 65 ± 4% | 0.71 ± 0.05 |  | 156 µM | 223 µM | 143 ± 30 µM | mixed | 200 ± 34 µM | 201 ± 34 µM | preferentially bind to the enzyme | IC50 (α-amylase [4]; ref Akkarachiyasit et al., (2010)): 300 µM; IC50 (α-amylase [4]; ref Sui et al. (2016)): 240 µM; Ki (α-amylase [4]; ref Sui et al. (2016)): 140 µM; IC50 (α-amylase [3]; ref Le et al. (2024)): 340 µM; Ki (α-amylase [3]; ref Le et al. (2024), read-out: Kic): 390 µM; Ki (α-amylase [3]; ref Le et al. (2024), read-out: Kiu): 210 µM
O=c1c(O[C@@H]2O[C@H](CO)[C@@H](O)[C@H](O)[C@H]2O)c(-c2ccc(O)c(O)c2)oc2cc(O)cc(O)c12 [Q-3-glc, quercetin-3-O-glucoside] | 72 ± 9% | 63 ± 4% | 0.65 ± 0.07 | 151 µM | 108 µM | 172 µM | 115 ± 16 µM | mixed | 178 ± 28 µM | 179 ± 28 µM | preferentially bind to the enzyme | Ki (α-amylase [4]; ref Li et al. (2009)): 5.35 µM
Oc1cc(O)c2c(c1)O[C@H](c1ccc(O)c(O)c1)[C@H](O)C2 [EC, (−)-epicatechin] | 82 ± 8% | 78 ± 4% | 0.74 ± 0.10 | 482 µM | 379 µM | 517 µM | 253 ± 47 µM |  | 385 ± 82 µM | 385 ± 82 µM | preferentially bind to the enzyme | 
COc1cc(/C=C/C(=O)O)ccc1O [FA, ferulic acid] | 94 ± 12% | 95 ± 3% | 0.67 ± 0.30 |  | 1240 µM | 2370 µM | 1240 ± 235 µM | mixed | 2350 ± 1470 µM | 2360 ± 1480 µM |  | IC50 (α-amylase [5]): 5450 µM; Ki (α-amylase [5]; read-out: Kic): 11200 µM; Ki (α-amylase [5]; read-out: Kiu): 4870 µM; IC50 (α-amylase [6]): 3200 µM; Ki (α-amylase [6]; read-out: Kic): 3400 µM; Ki (α-amylase [6]; read-out: Kiu): 3630 µM; IC50 (α-amylase [4]; ref Aleixandre et al. (2022)): > 5150 µM
Oc1cc(O)c2c(c1)O[C@H](c1ccc(O)c(O)c1)[C@H](O)[C@H]2c1c(O)cc(O)c2c1O[C@H](c1ccc(O)c(O)c1)[C@H](O)[C@H]2c1c(O)cc(O)c2c1O[C@H](c1ccc(O)c(O)c1)[C@H](O)C2 [PC C1, procyanidin C1] | 44 ± 4% | 50 ± 4% | 0.90 ± 0.12 | 104 µM | 92.3 µM | 104 µM | 94 ± 26 µM |  | 103 ± 16 µM | 103 ± 16 µM |  | reversibility of inhibition (from ΔRHapp) ([2]; 100 μM polyphenol (EGCG 25 μM)): irreversible aggregation
C[C@@H]1O[C@@H](OC[C@H]2O[C@@H](Oc3c(-c4ccc(O)c(O)c4)oc4cc(O)cc(O)c4c3=O)[C@H](O)[C@@H](O)[C@@H]2O)[C@H](O)[C@H](O)[C@H]1O [rutin, quercetin-3-O-rutinoside] | 90 ± 6% | 92 ± 4% | 0.28 ± 0.12 | 770 µM | 360 µM | 1560 µM | 354 ± 55 µM | mixed | 1540 ± 855 µM | 1560 ± 872 µM | preferentially bind to the enzyme | Ki (α-amylase [4]; ref Li et al. (2009)): 8.96 µM; IC50 (α-amylase [4]; [16]): 1.2 µM
O=C(/C=C/c1ccc(O)c(O)c1)O[C@@H]1C[C@](O)(C(=O)O)C[C@@H](O)[C@H]1O [CA, Chlorogenic acid] |  | 72 ± 6% | 0.70 ± 0.03 | 198 µM | 198 µM | 282 µM | 195 ± 68 µM | mixed | 278 ± 100 µM | 279 ± 100 µM | preferentially bind to the enzyme | IC50 (α-amylase [5]): 400 µM; Ki (α-amylase [5]; read-out: Kic): 1120 µM; Ki (α-amylase [5]; read-out: Kiu): 270 µM; IC50 (α-amylase [1]): 413 µM; Ki (α-amylase [1]; read-out: Kic): 406 µM; Ki (α-amylase [1]; read-out: Kiu): 413 µM; remaining activity at 100 µM ([2]; read-out: (dQ/dt)max [%]): 77 ± 5%; IC50 (α-amylase [4]; [16]): 3.9 µM
Oc1cc(O)c2c(c1)O[C@H](c1ccc(O)c(O)c1)[C@@H](O)C2 [CAT, (+)-catechin] |  |  | 0.75 ± 0.40 |  |  |  |  |  |  |  |  | IC50 [2, 9]: 120 ± 50 µg/mL; Kic [2, 9]: 0.10 ± 0.06 g/L; Kiu [2, 9]: 0.14 ± 0.06 g/L
Oc1cc(O)c2c(c1)O[C@H](c1ccc(O)c(O)c1)[C@H](O)[C@H]2c1c(O)cc(O)c2c1O[C@H](c1ccc(O)c(O)c1)[C@H](O)C2 [PC B2, procyanidin B2] | 56 ± 4% | 62 ± 4% | 0.94 ± 0.13 | 121 µM | 121 µM | 121 µM | 177 ± 39 µM |  | 173 ± 26 µM | 173 ± 26 µM |  | reversibility of inhibition (from ΔRHapp) ([2]; 100 μM polyphenol (EGCG 25 μM)): irreversible aggregation
Oc1cc(O)c2c(c1)O[C@H](c1ccc(O)c(O)c1)[C@H](O)[C@H]2c1c(O)cc(O)c2c1O[C@H](c1ccc(O)c(O)c1)[C@@H](O)C2 [PC B1, procyanidin B1] | 66 ± 14% | 66 ± 9% | 0.71 ± 0.20 | 190 µM | 156 µM | 225 µM | 155 ± 79 µM |  | 219 ± 91 µM | 219 ± 91 µM |  | 
